This is an account of results in publication PMC6282105 (Molecular Pharmaceutics, 2018).

Data set [1] can be described thus: Stability of the building block toward SPPS reagents. Type of data set: physicochemical. The note with it: SPPS conditions.
Data set [2] addresses T1, nitroreductase (NTR) (Escherichia coli, UniProt P38489).
T1 sequence (P38489 1-217): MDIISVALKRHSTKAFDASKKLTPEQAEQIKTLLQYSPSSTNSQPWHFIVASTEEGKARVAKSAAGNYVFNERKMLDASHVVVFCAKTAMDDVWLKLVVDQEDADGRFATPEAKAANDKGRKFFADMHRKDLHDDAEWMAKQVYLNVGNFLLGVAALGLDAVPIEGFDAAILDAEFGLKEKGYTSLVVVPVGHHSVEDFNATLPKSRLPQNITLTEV
Kind of data set: NTR-mediated removal of the CNBz moiety, followed by analytical HPLC. It counts as biochemical. The conditions noted are these: 0.3 equiv NTR, NADH as cofactor, analytical HPLC (Figure S2).

As to `O=C(NCCCC(NC(=O)OCC1c2ccccc2-c2ccccc21)C(=O)O)NC(=O)OCc1ccc([N+](=O)[O-])cc1` (centres unmarked) [compound 1, 14-(9H-fluoren-9-yl)-1-(4-nitrophenyl)-3,5,12-trioxo-2,13-dioxa-4,6,11-triazatetradecane-10-carboxylic acid], the “stability toward 20% piperidine and TFA” value in data set [1] is “very stable”. For the same compound, the “time to full removal of the CNBz moiety” value in data set [2] was no more than 5 min.
